We go through 8 molecules from ChEMBL document CHEMBL1151331, “New cyclic peptides from the ascidian Lissoclinum patella” (J Nat Prod, 1998).

By IC50 is commonly meant the concentration at which inhibition is half-maximal.

The first experiment is described as follows: Cytotoxicity against human multi drug-resistant CEM/VBL100 cells. Format: functional, cell-based.
Consider `CC[C@]1(O)C[C@@H]2CN(CCc3c([nH]c4ccccc34)[C@@](C(=O)OC)(c3cc4c(cc3OC)N(C)[C@H]3[C@@](O)(C(=O)OC)[C@H](OC(C)=O)[C@]5(CC)C=CCN6CC[C@]43[C@@H]65)C2)C1` [VINBLASTINE], for which the IC50 came out at 90 nM.

The next experiment is described as follows: Cytotoxicity against human multi drug-resistant CEM/VBL100 cells in presence of vinblastine. The experiment is classed as functional, cell-based.
With `CC[C@H](C)[C@@H]1NC(=O)c2csc(n2)[C@@H](C)NC(=O)[C@H]2N=C(O[C@@H]2C)[C@H](CC(C)C)NC(=O)c2csc(n2)[C@@H](Cc2ccccc2)NC(=O)[C@H]2N=C1O[C@@H]2C` [PATELLAMIDE B], the IC50 came to 12 nM.

`CC(C)C[C@H]1NC(=O)[C@H]2N=C(O[C@@H]2C)[C@H]2CSSC[C@@H](NC(=O)c3csc1n3)C(=O)N[C@@H]([C@H](C)O)C(=O)N[C@H](Cc1ccccc1)c1nc(cs1)C(=O)N2` [ULITHIACYCLAMIDE G]: the IC50 was determined as 90 nM. As for `CC[C@H](C)[C@@H]1NC(=O)c2csc(n2)[C@@H](Cc2ccccc2)NC(=O)[C@H]2N=C(O[C@@H]2C)[C@H](CC(C)C)NC(=O)c2csc(n2)[C@@H](C)NC(=O)[C@H]([C@H](C)O)NC1=O` [PATELLAMIDE G], the IC50 was found to be 60 nM.

Regarding `CC(C)C[C@H]1NC(=O)[C@H]([C@H](C)O)NC(=O)[C@H]2CSSC[C@@H](NC(=O)c3csc1n3)C(=O)N[C@@H]([C@H](C)O)C(=O)N[C@H](Cc1ccccc1)c1nc(cs1)C(=O)N2` [ULITHIACYCLAMIDE E], the IC50 is 112 nM. Take `CC(C)C[C@H]1NC(=O)[C@H]([C@H](C)O)NC(=O)[C@H]2CSSC[C@@H](NC(=O)c3csc1n3)C1=N[C@H](C(=O)N[C@H](Cc3ccccc3)c3nc(cs3)C(=O)N2)[C@@H](C)O1` [ULITHIACYCLAMIDE F]: the concentration for half-maximal inhibition (IC50) was determined as 44 nM. As for `CC[C@H](C)[C@@H]1NC(=O)c2csc(n2)[C@@H](C)NC(=O)[C@H]2N=C(O[C@@H]2C)[C@H](C(C)C)NC(=O)c2csc(n2)[C@@H](Cc2ccccc2)NC(=O)[C@H]2N=C1O[C@@H]2C` [PATELLAMIDE C], the IC50 came to 12 nM.

As to `CC[C@H](C)[C@@H]1NC(=O)c2csc(n2)[C@@H](C(C)C)NC(=O)[C@H]2N=C(O[C@@H]2C)[C@H]([C@@H](C)CC)NC(=O)c2csc(n2)[C@@H](C(C)C)NC(=O)[C@@H]2COC1=N2` [PATELLAMIDE A], the IC50 came out at 90 nM.
